Laboratory results as given in patent publication EP4650002A1 (Ludwig-Maximilians-Universität, priority 2024, dated 2025).

Target: T1, human TLX (Homo sapiens, UniProt Q9Y466)
T1 construct: expressed in transfected cells; host or cells: HEK293T
Test: Gal4 hybrid reporter gene assay (TLX modulation)
Format: cell-based
Parameters: key to relative reporter activity: fraction of DMSO control (DMSO = 1)
Conditions: for relative reporter activity: DMSO control = 1; for EC50: Gal4-TLX hybrid reporter in HEK293T cells, 16 h incubation
Experimental: In the Tables, the TLX relative reporter activity is expressed as EC50 (in µM) for each listed compound. "EC50" refers to a measure of the concentration of a compound which induces a biological response halfway between the baseline and maximum after a specified exposure time. […] The EC50 is measured via a hybrid reporter gene assay, employing the transfection of a reporter (firefly luciferase with Gal4 response element), a control gene (Renilla luciferase), a transcriptional activator (Gal4-VP16) and a hybrid receptor consisting of the TLX ligand binding domain (LBD) and the Gal4 DNA binding domain (DBD).
Hybrid reporter gene assays. […] After 24 h, medium was changed to Opti-MEM without supplements and cells were transiently transfected using Lipofectamine LTX reagent (Invitrogen, Carlsbad, CA, USA) according to the manufacturer's protocol. Five hours after transfection, cells were incubated with the test compounds in Opti-MEM supplemented with penicillin (100 U/mL), streptomycin (100 µg/mL) and 0.1% DMSO for 16 h before luciferase activity was measured using the Dual-Glo Luciferase Assay System (Promega) according to the manufacturer's protocol on a Tecan Spark luminometer (Tecan Deutschland GmbH, Crailsheim, Germany). Firefly luminescence was divided by Renilla luminescence and multiplied by 1000 resulting in relative light units (RLU) to normalize for transfection efficiency and cell growth. Fold activation was obtained by dividing the mean RLU of test compound by the mean RLU of the untreated control. All samples were tested in at least three biologically independent experiments in duplicates. For dose-response curve fitting and calculation of EC50 values, the equation "[Agonist] vs. response -- Variable slope (four parameters)" was used in GraphPad Prism (version 7.00, GraphPad Software, La Jolla, CA, USA).

[1] = minimal remaining or maximum reporter activity after treatment, in brackets below the EC50, <1 agonism, >1 inverse agonism

T1 sequence (Q9Y466 155-383 limits assumed): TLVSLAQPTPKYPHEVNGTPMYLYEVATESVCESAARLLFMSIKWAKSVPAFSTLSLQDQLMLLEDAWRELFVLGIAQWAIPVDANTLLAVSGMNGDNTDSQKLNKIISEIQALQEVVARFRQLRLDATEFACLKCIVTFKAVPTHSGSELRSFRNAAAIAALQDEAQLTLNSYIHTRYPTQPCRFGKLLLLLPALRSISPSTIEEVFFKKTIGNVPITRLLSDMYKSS

| EC50 [µM] | relative reporter activity [1] | Structure (SMILES) | other results |
| --- | --- | --- | --- |
|  |  | Cc1cn(-c2cccc(N)c2)cn1 [compound 101, 3-(4-methyl-1H-imidazol-1-yl)aniline] | relative reporter activity (at 30 µM): inactive at 30 µM |
| 1.9 ± 0.5 | 0.18±0.10 | Cc1cn(-c2cccc(NC(=O)Cc3ccccc3Cl)c2)cn1 [compound 103, 2-(2-chlorophenyl)-N-(3-(4-methyl-1H-imidazol-1-yl)phenyl)acetamide] |  |
|  |  | Cc1cc(-c2cccc(N)c2)ccn1 [compound 104, 3-(2-methylpyridin-4-yl)aniline] | relative reporter activity (at 50 µM): (0.73±0.06 at 50 µM) |
|  |  | Cn1cc(-c2cccc(N)c2)cn1 [compound 105, 3-(1-methyl-1H-pyrazol-4-yl)aniline] | relative reporter activity (at 30 µM): inactive at 30 µM |
|  |  | Cc1cc(N)cc(-c2ccnc(C)c2)c1 [compound 106, 3-methyl-5-(2-methylpyridin-4-yl)aniline] | relative reporter activity (at 30 µM): (0.44±0.09 at 30 µM) |
|  |  | Cc1cc(-c2cc(N)ccc2C(F)(F)F)ccn1 [compound 107, 3-(2-methylpyridin-4-yl)-4-(trifluoromethyl)aniline] | relative reporter activity (at 50 µM): (0.39±0.04 at 50 µM) |
| 15 ± 4 |  | COc1cc(N)cc(-c2ccnc(C)c2)c1 [compound 108, 3-methoxy-5-(2-methylpyridin-4-yl)aniline] |  |
| 5.9 ± 2.2 | 0.40±0.11 | Cc1cc(-c2cc(N)cc(C#N)c2)ccn1 [compound 109, 3-amino-5-(2-methylpyridin-4-yl)benzonitrile] |  |
| 16 ± 10 | 0.34±0.09 | Cc1cc(-c2cc(N)ccc2OC(F)(F)F)ccn1 [compound 110, 3-(2-methylpyridin-4-yl)-4-(trifluoromethoxy)aniline] |  |
| 10 ± 7 |  | Cc1cc(-c2cc(N)cc(Cl)c2)ccn1 [compound 111, 3-chloro-5-(2-methylpyridin-4-yl)aniline] |  |
| 18 ± 10 | 0.58±0.09 | CC(=O)c1ccc(-c2ccnc(C)c2)cc1N [compound 112, 1-(2-amino-4-(2-methylpyridin-4-yl)phenyl)ethan-1-one] |  |
| 13.6 ± 0.6 |  | Cc1cc(-c2cc(N)cc(OC(F)(F)F)c2)ccn1 [compound 113, 3-(2-methylpyridin-4-yl)-5-(trifluoromethoxy)aniline] |  |
| 9.6 ± 0.7 |  | Cc1cc(-c2cc(N)cc(Cl)c2Cl)ccn1 [compound 114, 3,4-dichloro-5-(2-methylpyridin-4-yl)aniline] |  |
| 3.8 ± 0.7 |  | Cc1cc(-c2cc(N)cc3[nH]ccc23)ccn1 [compound 115, 4-(2-methylpyridin-4-yl)-1H-indol-6-amine] |  |
|  |  | Cc1cc(-c2cc(N)c3cc[nH]c3c2)ccn1 [compound 116, 6-(2-methylpyridin-4-yl)-1H-indol-4-amine] | relative reporter activity (at 50 µM): inactive at 50 µM |

| Structure (SMILES) | EC50 [µM] | relative reporter activity [1] | other results |
| --- | --- | --- | --- |
| Cc1cc(-c2cc(N)c3cn[nH]c3c2)ccn1 [compound 117] | 7.9 ± 1.5 | 0.31±0.03 |  |
